The assay concerns P388 leukemia ip, CD2F1 mice, survival T/C. Briefly: NCI In Vivo Anticancer Drug Screen. Data for tumor model P388 Leukemia (intraperitoneal) in CD2F1 (CDF1) mice. Conditions: endpoint: median survival time, higher = longer survival. In short, it runs like this:
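Mice carrying the transplanted tumor received test compound or vehicle. Survival was recorded in each group, and the value is the treated-group measurement divided by that of the vehicle-treated control group.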

[1] abbreviates: dose: 50.0 mg/kg/injection, schedule: Q01DX005 (ip), vehicle: Klucel (hydroxypropylcellulose) (HPC).
Setting [2] is: dose: 100.0 mg/kg/injection, schedule: Q01DX005 (ip), vehicle: Klucel (hydroxypropylcellulose) (HPC).
[3] abbreviates: dose: 200.0 mg/kg/injection, schedule: Q01DX005 (ip), vehicle: Klucel (hydroxypropylcellulose) (HPC).
Setting [4] is: dose: 50.0 mg/kg/injection, schedule: Q01DX005 (ip), vehicle: saline with Tween-80.
The mark [5] stands for this setting: dose: 100.0 mg/kg/injection, schedule: Q01DX005 (ip), vehicle: saline with Tween-80.
Setting [6] is: dose: 50.0 mg/kg/injection, schedule: Q01DX009 (ip), vehicle: saline.
The mark [7] stands for this setting: dose: 100.0 mg/kg/injection, schedule: Q01DX009 (ip), vehicle: saline.
Setting [8] is: dose: 60.0 mg/kg/injection, schedule: Q01DX005 (ip), vehicle: Klucel (hydroxypropylcellulose) (HPC).
[9] abbreviates: dose: 200.0 mg/kg/injection, schedule: Q01DX005 (ip), vehicle: saline with Tween-80.

“And” between values parts separate entries of the source, which are not always exact repeats. Equal entries are not always repeated. Inconclusive results and toxic doses are left out.

In the case of `COC1=CC(C)C2CC3OC(=O)CC4C(C)=C(OC)C(=O)C(C2(C)C1=O)C34C` (stereo unspecified), the T/C reads like this: under setting [1], 95 % of control; under setting [2], 101 % of control; under setting [3], 101 % of control.
On to `NC(CCS)C(=O)O` (stereo unspecified), for which the T/C is 90 % of control under setting [4] and 92 % of control under setting [5].
Take `OCc1c(-c2ccccc2)nc2n1CCS2`: the T/C runs as follows: (dose: 100.0 mg/kg/injection, schedule: Q01DX001 (ip), vehicle: Klucel (hydroxypropylcellulose) (HPC)) 102 % of control; (dose: 200.0 mg/kg/injection, schedule: Q01DX001 (ip), vehicle: Klucel (hydroxypropylcellulose) (HPC)) 102 % of control; (dose: 400.0 mg/kg/injection, schedule: Q01DX001 (ip), vehicle: Klucel (hydroxypropylcellulose) (HPC)) 98 % of control.
Consider `CSC(=S)N/N=C/c1nccc(-c2ccccc2)c1C`, for which the T/C reads like this: under setting [6], 97 % of control; under setting [7], 108 % of control; (dose: 200.0 mg/kg/injection, schedule: Q01DX009 (ip), vehicle: saline) 96 % of control.
For the molecule `COc1cc(CCN=Cc2cccc(OC)c2O)c([N+](=O)[O-])cc1OC`, the T/C under setting [1] is 93 % of control, the T/C under setting [2] was 93 % of control and the T/C under setting [3] is 93 % of control.
Consider `COC(=O)C1=C/C=C\CN(CCC2OCCO2)/C=C\1C(=O)OC`, for which the T/C (dose: 100.0 mg/kg/injection, schedule: Q01DX001 (ip), vehicle: alcohol) was 99 % of control; the T/C (dose: 200.0 mg/kg/injection, schedule: Q01DX001 (ip), vehicle: alcohol) is 100 % of control; the T/C (dose: 400.0 mg/kg/injection, schedule: Q01DX001 (ip), vehicle: alcohol) was 100 % of control.
In the case of `COC(=O)/C(=N\NS(=O)(=O)c1ccc(C)cc1)c1ccccc1`, the T/C reads like this: (dose: 12.5 mg/kg/injection, schedule: Q01DX009 (ip), vehicle: Klucel (hydroxypropylcellulose) (HPC)) 99 % of control; (dose: 25.0 mg/kg/injection, schedule: Q01DX009 (ip), vehicle: Klucel (hydroxypropylcellulose) (HPC)) 105 % of control; (dose: 50.0 mg/kg/injection, schedule: Q01DX009 (ip), vehicle: Klucel (hydroxypropylcellulose) (HPC)) 99 % of control; (dose: 100.0 mg/kg/injection, schedule: Q01DX009 (ip), vehicle: Klucel (hydroxypropylcellulose) (HPC)) 98 % of control; (dose: 200.0 mg/kg/injection, schedule: Q01DX009 (ip), vehicle: Klucel (hydroxypropylcellulose) (HPC)) 90 % of control.
For the molecule `O=C(O)C(O)(c1ccccc1Cl)c1ccccc1Cl`, the T/C is 105 % of control (dose: 100.0 mg/kg/injection, schedule: Q04DX003 (ip), vehicle: saline with Tween-80); 110 % of control (dose: 200.0 mg/kg/injection, schedule: Q04DX003 (ip), vehicle: saline with Tween-80); 109 % of control (dose: 400.0 mg/kg/injection, schedule: Q04DX003 (ip), vehicle: saline with Tween-80).
On to `CCCCN=C1Nc2nc(=NCCCC)nc3c(Br)cc(Br)c(n23)N1`, for which the T/C reads like this: (dose: 0.18 mg/kg/injection, schedule: Q01DX005 (ip), vehicle: Klucel (hydroxypropylcellulose) (HPC)) 101 % of control; (dose: 0.37 mg/kg/injection, schedule: Q01DX005 (ip), vehicle: Klucel (hydroxypropylcellulose) (HPC)) 97 % of control; (dose: 0.75 mg/kg/injection, schedule: Q01DX005 (ip), vehicle: Klucel (hydroxypropylcellulose) (HPC)) 94 % of control; (dose: 30.0 mg/kg/injection, schedule: Q01DX005 (ip), vehicle: Klucel (hydroxypropylcellulose) (HPC)) 86 % of control; under setting [8], 87 % of control and 89 % of control.
As for `Oc1c2ccccc2cc2cnc3ccccc3c12`, the T/C under setting [8] is 102 % of control; the T/C (dose: 120.0 mg/kg/injection, schedule: Q01DX005 (ip), vehicle: Klucel (hydroxypropylcellulose) (HPC)) is 109 % of control; the T/C (dose: 240.0 mg/kg/injection, schedule: Q01DX005 (ip), vehicle: Klucel (hydroxypropylcellulose) (HPC)) was 111 % of control.
Consider `Cc1ccccc1-n1c(=S)n(-c2ccc(Cl)cc2)c2nc3ccccc3nc1/c2=N/Nc1cc(Cl)ccc1Cl`, for which the T/C was 95 % of control under setting [4] and 92 % of control under setting [5].
Turning to `Cc1ccccc1C1(C)C(=O)c2ccccc2C1=O`, the T/C (dose: 100.0 mg/kg/injection, schedule: Q04DX002 (ip), vehicle: saline) was 101 % of control; the T/C (dose: 200.0 mg/kg/injection, schedule: Q04DX002 (ip), vehicle: saline) was 106 % of control; the T/C (dose: 400.0 mg/kg/injection, schedule: Q04DX002 (ip), vehicle: saline) was 100 % of control.
Take `CN(CCC#N)c1ccc(/C=C(\C#N)c2cccc(C(F)(F)F)c2)cc1`: the T/C was 105 % of control under setting [1], 90 % of control under setting [2] and 96 % of control under setting [3].
Consider `O=C(CCl)NC(=O)CCl`, for which the T/C (dose: 25.0 mg/kg/injection, schedule: Q01DX009 (ip), vehicle: saline with Tween-80) was 90 % of control.
For `O=NNc1ccc(SSc2ccc(NN=O)cc2)cc1`, the T/C was 106 % of control (dose: 1.56 mg/kg/injection, schedule: Q01DX009 (ip), vehicle: water); 100 % of control and 124 % of control (dose: 3.12 mg/kg/injection, schedule: Q01DX009 (ip), vehicle: water); 121 % of control (dose: 6.25 mg/kg/injection, schedule: Q01DX009 (ip), vehicle: water); 123 % of control (dose: 12.5 mg/kg/injection, schedule: Q01DX009 (ip), vehicle: water).
With `Cn1c(-c2nc3ccccc3n2C)nc2ccccc21`, the T/C by setting is: under setting [4], 102 % of control; under setting [5], 98 % of control; under setting [9], 102 % of control.
For the molecule `COc1ccc2c(NCCCCCCCCNc3c4ccc(OC)cc4nc4c(OC)cccc34)c3cccc(OC)c3nc2c1`, the T/C is, setting by setting: (dose: 0.63 mg/kg/injection, schedule: Q01DX009 (ip), vehicle: other) 166 % of control; (dose: 2.5 mg/kg/injection, schedule: Q01DX009 (ip), vehicle: other) 120 % of control; (dose: 5.0 mg/kg/injection, schedule: Q01DX009 (ip), vehicle: other) 86 % of control.
Consider `CNc1nc2c(C)ccc3[nH]c(N(C)C)nc3c-2n1`, for which the T/C (dose: 25.0 mg/kg/injection, schedule: Q01DX005 (ip), vehicle: Klucel (hydroxypropylcellulose) (HPC)) is 100 % of control; the T/C under setting [1] was 99 % of control; the T/C under setting [2] is 91 % of control.
In the case of `N#CCCC1(CCC#N)CCCC(CCC#N)(CCC#N)C1=O`, the T/C (dose: 50.0 mg/kg/injection, schedule: Q01DX009 (ip), vehicle: saline with Tween-80) is 95 % of control; the T/C (dose: 100.0 mg/kg/injection, schedule: Q01DX009 (ip), vehicle: saline with Tween-80) is 99 % of control; the T/C (dose: 200.0 mg/kg/injection, schedule: Q01DX009 (ip), vehicle: saline with Tween-80) was 87 % of control; the T/C (dose: 400.0 mg/kg/injection, schedule: Q01DX009 (ip), vehicle: saline with Tween-80) is 92 % of control.
As for `CCCc1onc(-c2noc(CCC)c2CC)c1CC`, the T/C was 100 % of control (dose: 60.0 mg/kg/injection, schedule: Q01DX005 (ip), vehicle: saline); 95 % of control (dose: 120.0 mg/kg/injection, schedule: Q01DX005 (ip), vehicle: saline); 103 % of control (dose: 240.0 mg/kg/injection, schedule: Q01DX005 (ip), vehicle: saline).
On to `Oc1ccc2c(c1)[C@]13CCCCC1[C@H](C2)N(Cc1ccoc1)CC3` (stereo partly specified), for which the T/C was 97 % of control (dose: 25.0 mg/kg/injection, schedule: Q01DX009 (ip), vehicle: saline); 99 % of control and 103 % of control under setting [6]; 99 % of control under setting [7].
In the case of `O=[N+]([O-])c1ccccc1N=Nc1c(-c2ccccc2)nn(C(=S)N2CCOCC2)c1-c1ccccc1`, the T/C was 102 % of control (dose: 1.5 mg/kg/injection, schedule: Q01DX005 (ip), vehicle: saline with Tween-80); 96 % of control (dose: 3.0 mg/kg/injection, schedule: Q01DX005 (ip), vehicle: saline with Tween-80); 87 % of control (dose: 6.0 mg/kg/injection, schedule: Q01DX005 (ip), vehicle: saline with Tween-80); 92 % of control (dose: 6.25 mg/kg/injection, schedule: Q01DX005 (ip), vehicle: saline with Tween-80); 86 % of control under setting [5]; 95 % of control under setting [9].

The values are drawn from PubChem BioAssay AID330 (DTP/NCI, 2004).
